Measured values taken from US9512176B2, “Age inhibitors” (Centre National de la Recherche Scientifique, priority 2005, dated 2016).
Non-standard residues stand in square brackets, D forms with d. Residues, ends and D or L forms follow the SMILES beside them. Dap = NC[C@H](N)C(=O)O

What was measured:
[1] = tested on: lysozyme; test: SDS PAGE electrophoresis of lysozyme incubated with methylglyoxal and inhibitor; assay type: biochemical; details: lysozyme 10 mg/ml, methylglyoxal 10 mM, inhibitor equimolar, 37° C., 48 hours
Method: (§1) Ribonuclease A and lysozyme (10 mg/ml) are incubated in the presence of methylglyoxal (10 mM) or in the presence of methylglyoxal and one of the inhibitors according to the present invention in an equimolar quantity at 37° C. After 48 hours of incubation, the proteins are analyzed by polyacrylamide gel electrophoresis (8%-16% SDS PAGE gel).

[2] = tested on: Human insulin; test: Modification of insulin by methylglyoxal (HPLC); assay type: biochemical; details: insulin 0.034 mM, methylglyoxal 3.4 mM, scavenger 4.08 mM, pH 7.45, 37° C.
Method: FIG. 1 presents the comparative effects of dicarbonyl scavengers in the form of dihydrochloride according to the present invention and the comparison with DAPA on the modification of insulin (Ins) by methylglyoxal (MG). The percentage of insulin is indicated following incubation with methylglyoxal in the presence or absence of dicarbonyl scavengers. Insulin (0.034 mM) is incubated in vitro in a 10 mM phosphate buffer, pH 7.45 (containing 0.1 M NaCl) with methylglyoxal (3.4 mM) in the presence of dicarbonyl scavengers (4.08 mM) for 21 hours at 37° C. Insulin concentration is measured by HPLC (same conditions as in FIG. 3).
FIGS. 3 to 8 present the results obtained by HPLC for two compounds according to the present invention, L-DAPA-L-Leu (example 1) and L-DAPA-L-Val (example 23), on insulin modifications induced by methylglyoxal. It can be observed that these modifications are prevented. The HPLC conditions are as follows: C-18, Symmetry 300 (4.6×250 mm) column, injection volume 100 μl of reaction mixture; flow 1 ml/min; temperature 40° C.; solvent A: H2O+0.1% TFA; solvent B: 60/40 CH3CN/H2O+0.1% TFA; linear gradient of 50% B to 55% B in 15 minutes; detection: UV at 215 nm: PDA (chromatograms extracted at 220 nm).
Human insulin (Ins) is incubated with methylglyoxal (MG) under physiological conditions. After 24 hours, the insulin is completely modified, as illustrated in FIG. 1 (Ins+MG).
On the other hand, insulin is incubated with methylglyoxal in the presence of an equimolar quantity of the AGE inhibitors according to the present invention under physiological conditions.

[3] = tested on: glyoxalase I; test: Glyoxalase I treated with methylglyoxal: non-denaturing electrophoresis and enzymatic activity; assay type: biochemical
Method: MG reacts with a protein's lysine and arginine residues, thus altering the charges on the modified polypeptide. […] The exposure of glyoxalase I to MG (10 mM) for 24 hours increases the mobility of the protein toward the positive electrode, a change that is consistent with the loss of positive charges from the ε-amino and guanidino groups and the gain of negative charges.
The incubation of glyoxalase I, a key protein in the α-oxoaldehyde detoxification system, in the presence of methylglyoxal, modifies the protein. This modification causes a change in charge and a 50% decrease in enzymatic activity compared to the control.

[4] = tested on: ribonuclease A; test: SDS PAGE electrophoresis of ribonuclease A incubated with methylglyoxal and inhibitor; assay type: biochemical; details: ribonuclease A 10 mg/ml, methylglyoxal 10 mM, inhibitor equimolar, 37° C., 48 hours
Method: as §1
The AGE inhibitors according to the present invention, namely L-DAPA-L-Leu (example 1) and L-DAPA-L-Ile (example 18), or AG (10 mM) are incubated with MG and ribonuclease A for […] at 37° C.

[5] = tested on: RNase A; test: RNase A modifications induced by methylglyoxal (HPLC); assay type: biochemical; details: RNase A 0.08 mM, methylglyoxal 32 mM, compound 38 mM, 21 hours at 37° C.
Method: FIGS. 11 to 13 present the results obtained by HPLC for three compounds according to the present invention, L-DAPA-L-Ile (example 18), L-DAPA-L-Val (example 23) and L-DAPA-L-Leu (example 1), on RNase A modifications induced by methylglyoxal. HPLC conditions are as follows: C-18, Symmetry 300 (4.6×250 mm) column, injection volume 100 μl of reaction mixture diluted to 1/10; flow 1 ml/min; temperature 40° C.; solvent A: H2O+0.1% TFA; solvent B: 60/40 CH3CN/H2O+0.1% TFA; linear gradient of 20% B to 80% B in 20 minutes; detection: UV at 215 nm: PDA (chromatograms extracted at 215 nm).

[6] = tested on: EA.hy 926 cell line; test: Growth of EA.hy 926 endothelial cells with MG scavengers and/or methylglyoxal (MTT); assay type: cell-based, human
Method: The cells used for the test are from the EA.hy 926 cell line, which are endothelial cells obtained by the hybridization of human umbilical vein endothelial cells (HUVECs) with lung cancer cells (A549). The EA.hy 926 endothelial cells are incubated in Dulbecco's modified Eagle's Medium (DMEM) enriched with 10% fetal calf serum. The cells are incubated in 12-well plates. Each well initially contains 100,000 cells. Cell growth is achieved by incubating the cells in 2 ml of culture medium after adding or not adding the various potential inhibitors (1 mM) and/or methylglyoxal (600 μM) for 48 hours at 37° C. in a moist atmosphere with 5% CO2.
The number of cells is evaluated in the following way:
The cells are stained using the (4,5-dimethylthiazol-2-yl)-2,5-diphenyltetrazolium bromide (MTT) assay. MTT penetrates in the cell where it is converted into formazan. The quantity of formazan formed is proportional to the number of living cells.
The results are expressed as a relative percentage of the number of cells after treatment compared to the number of control cells without treatment [100*OD (treated cells)/OD (control cells)]. Detection is carried out by UV/visible spectrophotometry at 570 nm.
Principle: MTT (yellow) penetrates the cell and is converted into an insoluble blue compound, formazan, by cleavage of its tetrazolium rings by the mitochondrial dehydrogenase enzymes of living cells. Formazan is solubilized by isopropanol. The number of cells is proportional to the quantity of formazan formed and its absorbance.

[7] = tested on: ribonuclease A; test: Enzymatic activity of ribonuclease A after treatment with methylglyoxal and inhibitors (methylene blue RNA staining); assay type: biochemical; details: ribonuclease A treated with methylglyoxal (MG) + inhibitor in equimolar quantity, 37° C.; control RNase 100, RNase + methylglyoxal 10.11%
Method: as §1
The enzymatic activity of ribonuclease A after treatment with methylglyoxal and the various inhibitors according to the present invention is measured using the methylene blue RNA staining technique of Greiner-Stöffele et al. (Anal. Biochem. (1996) 240, 24).

CC(C)C[C@H](NC(=O)[C@@H](N)CN)C(=O)O [example 1, L-DAPA-L-Leu.2HCl] (H-[Dap]-Leu-OH)
protection from structural modifications (dimer form) caused by methylglyoxal [1]: provides protection
modification of insulin by methylglyoxal [2]: prevented
gain of negative charge of glyoxalase I exposed to MG ([3]; MG 10 mM, 24 hours, non-denaturing electrophoresis): inhibits the gain of negative charge
inhibition of glyoxalase I enzymatic activity and structural modification by methylglyoxal ([3]; MG alone: 50% decrease in enzymatic activity): prevents the inhibition exerted by methylglyoxal and protects against structural modifications
protection from structural modifications (dimer form) caused by methylglyoxal [4]: provides protection
RNase A modifications induced by methylglyoxal [5]: prevent the modifications to RNase A
cell survival when incubated with MG [6]: 81%
viability at 1000 µM ([6]; Homo sapiens, EA.hy 926, scavenger 1 mM + methylglyoxal 600 μM, 48 hours, relative to untreated control cells, MG alone 24, mean of 3 experiments, read-out: Cells + MG scavengers + Methylglyoxal (B)): 81%
Difference (B) − (A) ([6]; Table 2, cells with scavenger + MG minus cells with scavenger alone): −13
Cells + MG scavengers (A) ([6]; scavenger 1 mM, no methylglyoxal, 48 hours, number of cells relative to untreated control cells, mean of 3 experiments): 94%
effect against suppression of cell growth by MG ([6]; scavenger + methylglyoxal): same trend
difference between number of cells growing with compound and with MG and compound ([6]; values in brackets): −13
Enzymatic activity (%) [7]: 93.91%
